# Test results as given in article PMC9356275, “A quantitative high-throughput screen identifies compounds that lower expression of the SCA2-and ALS-associated gene ATXN2” (The Journal of Biological Chemistry, 2022).
# Structures can show the parent of a compound that is named as a salt. Where two headings read alike, the source gives them in different places.
# How the values were obtained:
# Type in all cases: cell-based, human
# ATXN2-luc [1] = assay: MSSR hit retest: ATXN2-luc luciferase assay, average of H2 and S1 cells (1 and 10 uM); set-up: H2&S1 ave luc 1uM / H2&S1 ave luc 10uM: scale not given here; details: for H2&S1 ave luc 10uM / activity at 10 µM: head line r3 10uM; for H2&S1 ave luc 10uM: head line r4 20 uM compound; for activity at 1 µM / activity at 10 µM / activity: Homo sapiens; for activity at 1 µM: read-out: H2&S1 ave luc 1uM; for activity at 10 µM / activity: read-out: H2&S1 ave luc 10uM
# Excerpt: (§1) Supplement mmc2.xlsx, sheet "43 annotated compounds"
# ATXN2-luc [2] = assay: MSSR hit retest / multiconcentration testing: ATXN2-luc luciferase assay in H2 cells (1 and 10 μM); details: for H2&S1 ave luc 1uM: 1 uM compound; for H2&S1 ave luc 10uM: 10 uM compound
# ATXN2-luc [3] = assay: MSSR pilot screen: ATXN2-luc luciferase assay (Bright-Glo) in H2 cells, single 10 μM dose; details: for SD from mean (ATXN2-luc, Z-score): H2 cells, single dose (title: 10 μM compound), overnight; for ¦Score/1SD¦: absolute score divided by 1SD (0.891 or 0.9)
# H2 and S1 cells = assay: Paired MTT viability assay, average of H2 and S1 cells (1 and 10 uM); set-up: H2&S1 ave MTT 1uM / H2&S1 ave MTT 10uM: unit not given here; details: for viability at 1 µM / viability at 10 µM: Homo sapiens
# Excerpt: as §1
# [4] = 1 uM compound, average of H2 and S1 cells
# [5] = luciferase assay, average of H2 and S1 cells (both ATXN2-luc), rescreen from plated libraries
# [6] = pilot screen, H2 cells expressing ATXN2-luc, single dose printed as 10 μM compound
# [7] = 1 uM compound, read-out: H2&S1 ave MTT 1uM
# [8] = 10 uM compound, read-out: H2&S1 ave MTT 10uM
# [9] = read-out: H2&S1 ave MTT 1uM, 1 uM compound
# [10] = read-out: H2&S1 ave MTT 10uM, 10 uM compound
# [11] = luciferase, average of H2 and S1 cells expressing ATXN2-luc, rescreen
# [12] = pilot screen at 10 µM compound, H2 cells expressing ATXN2-luc
Compound,H2&S1 ave luc 1uM (ATXN2-luc [1]; [4]),H2&S1 ave luc 10uM (ATXN2-luc [1]; average of H2 and S1 cells),H2&S1 ave luc 1uM (ATXN2-luc [2]; [5]),H2&S1 ave luc 10uM (ATXN2-luc [2]; [5]),"SD from mean (ATXN2-luc, Z-score) (ATXN2-luc [3]) [SD]",SD from mean (pilot screen) (ATXN2-luc [3]; pilot screen) [SD],SD from mean (pilot screen) (ATXN2-luc [3]; [6]),¦Score/1SD¦ (ATXN2-luc [3]; pilot screen),H2&S1 ave MTT 1uM (H2 and S1 cells; 1 uM compound),H2&S1 ave MTT 10uM (H2 and S1 cells; 10 uM compound),activity at 1 µM (ATXN2-luc [1]; [4]) [%],activity at 10 µM (ATXN2-luc [1]; average of H2 and S1 cells) [%],viability at 1 µM (H2 and S1 cells; [7]) [%],viability at 10 µM (H2 and S1 cells; [8]) [%],H2&S1 ave luc 1uM (ATXN2-luc [2]; [11]),SD from mean (pilot screen) (ATXN2-luc [3]; [12]),also measured
CS(=O)(=O)Nc1ccc(Cc2noc(-c3ccc4[nH]cc(CCN)c4c3)n2)cc1 [L-694 247],110,6,110,6,-3.156,-3.156,-3.156,3.51,107.272,16.3621,,,,,,,
CC1=CC(=O)c2ccccc2C1=O [Menadione],,,115,,-3.434,-3.434,-3.434,3.85,,,115,35,153,103,,,
CCCCCCCCCOc1ccc2[nH]cc(CCN)c2c1 [5-Nonyloxytryptamine],,,111,,-3.607,-3.607,-3.607,4.01,,,,,,,,,activity at 1 µM (ATXN2-luc [1]): 111%; activity (ATXN2-luc [1]): 4.61%; viability at 1 µM (H2 and S1 cells; [9]): 114%; viability at 10 µM (H2 and S1 cells; [10]): 23.7%
[H]/N=C(/NCCCCC)N/N=C/c1c[nH]c2ccc(OC)cc12 [TEGASEROD MALEATE],,,105,,-3.606,-3.606,-3.606,4.01,,,105,8,106,14.2,,,
COc1cccc(C2(O)CCCCC2CN(C)C)c1 (stereo not shown) [Tramadol],,,107,134,-3.415,-3.415,-3.415,3.79,,,,,,,,,activity at 1 µM (ATXN2-luc [1]): 107%; activity (ATXN2-luc [1]): 134%; viability at 1 µM (H2 and S1 cells; [9]): 128%; viability at 10 µM (H2 and S1 cells; [10]): 113%
STROPH[…] LACTONE ACETATE,37,,,,-3.855,-3.855,,4.28,43.5914,36.6277,,,,,37,-3.855,H2&S1 ave luc 10uM (ATXN2-luc [2]; [11]): 20
CC[C@H]1CN2CCc3cc(OC)c(OC)cc3[C@@H]2C[C@@H]1C[C@H]1NCCc2cc(O)c(OC)cc21.Cl.Cl.O.O.O.O.O.O.O [Cephaeline dihydrochloride heptahydrate],16,17,,,-4.055,-4.055,,4.55,59.1374,62.1025,,,,,16,-4.055,H2&S1 ave luc 10uM (ATXN2-luc [2]; [11]): 17
CC(N/C(=N\C#N)Nc1ccncc1)C(C)(C)C (stereo not shown),,,,,-4.875,-4.875,,5.47,,,117,17,107,51.5,117,-4.875,
CO[C@H]1[C@@H](O)[C@@H](C)O[C@@H](O[C@H]2CC[C@]3(C)[C@H]4CC[C@]5(C)[C@@H](C6=CC(=O)OC6)CC[C@]5(O)[C@@H]4CC[C@]3(O)C2)[C@@H]1O [EMICYMARIN],115,31,115,31,-3.080,-3.080,-3.080,3.42,111.923,53.425,,,,,,,
